{
  "source": "patent US10493057B2",
  "about": "“Acetogenin molecules having antiplatelet and/or antithrombic activities, and methods and compositions thereof” (INSTITUTO TECNOLOGICO Y DE ESTUDIOS SUPERIORES DE MONTERREY, priority 2015, dated 2019)",
  "key": {"[1]": {"test_system": "platelets (human platelet-rich plasma)", "assay": "Platelet aggregation assay (turbidimetric, platelet-rich plasma) induced by collagen, ADP or arachidonic acid", "type": "cell-based", "source_text": "Antiplatelet activity may be assessed using one or more in vitro (e.g., platelet aggregation) and/or in vivo (e.g., blood clotting time) assays. Antiplatelet activity may be assessed, for example, using a light transmittance aggregometry test based on the stimulation of platelet-platelet aggregation in platelet-rich plasma after stimulation with various agonists (e.g., ADP, α Arachidonic acid, collagen etc). This test has been the most widely used technique to monitor the effects of antiplatelet agents. Agonists and their concentration may be used to produce full aggregation. Under this condition, acetogenins may inhibit aggregation induced by any agonist; their half maximal inhibitory concentration (IC50) value may vary by the agonist used. Percent aggregation inhibition values may be calculated using the following equation: % Inhibition=(Maximal aggregation vehicle control−Maximal aggregation acetogenins)/Maximal aggregation vehicle control×100%. Under a dose-dependent antiplatelet activity, IC50 may represent the concentration of acetogenins required for 50% inhibition of stimulation of platelet aggregation. […]\nTo confirm the contribution of the isolated acetogenin compounds to antiplatelet activity, their individual activity was evaluated at different concentrations (0.15-15 mM). Aggregation was induced by different agonists that included collagen (5 μg mL−1), ADP (20 μM) and arachidonic acid (500 μM) in an approximation to explore the potential interference of acetogenins with the binding of a particular agonist to its cell surface receptor.\nThe platelet aggregation (induced by ADP, collagen and arachidonic acid) inhibitory activity of the purified molecules was evaluated was conducted in accordance with the Helsinki Declaration using human blood donated to the blood bank of Instituto Nacional de Cardiología Ignacio Chávez. Blood samples were taken from healthy volunteers who had not taken any medications for at least 2 weeks, or ingested any alcohol for at least 24 h prior to sample collection. Blood was collected by venipuncture into Vacutainer (BD Diagnostics, Plymouth, UK) tubes containing 3.8% sodium citrate as an anticoagulant (at a 9:1 ratio, v/v). Platelet-rich plasma (PRP) and platelet-poor plasma (PPP) were obtained as earlier reported by A. De la Peña, G. Baños, R. Izaguirre, J. J. Mandoki and J. M. Fernández, Comparative effect of synthetic aminoestrogens with estradiol on platelet aggregation, Steroids, 1993, 58(9), 407-409. The assays were carried out within 2 h after the blood had been drawn.\nEvaluation of platelet aggregation was performed by turbidimetric measurements according to S. S. Falkenberg, I. Tarnow, A. Guzman, P. Molgaard and H. T. Simonsen, Mapuche herbal medicine inhibits blood platelet aggregation, Evid. Based Complement. Alternat. Med., 2012, 2012, 647620, with some modifications. PRP adjusted with PPP to a platelet count of 2.5×108 mL^−1 (215 μL) was pre-incubated at 37° C. for 10 min with the evaluated sample (10 μL) and at various concentrations.\nPlatelet aggregation was initiated by the addition of 25 μL of the platelet agonist. The final concentrations of agonists in the reaction mixture were 20 μM ADP, 500 μM arachidonic acid or 5 μg mL^−1 collagen, all obtained from Chrono-PAR. Corporation (Havertown, Pa., USA). Aggregation response was recorded for 10 min using a Chrono-log Model 700 Whole Blood/Optical Lumi-Aggregometer (Chrono-Log, Havertown, Pa., USA). Maximal aggregation (MA) observed for samples containing avocado extracts, at different degrees of purification, was compared to those of vehicle controls (DMSO 2 M) evaluated under the same experimental conditions. Percent aggregation inhibitions, for all samples, were calculated using the following equation: % Inhibition=(MA vehicle control−MA extract)/MA vehicle control×100%. […]"}, "[2]": {"test_system": "Male adult CD1 mice", "assay": "Blood clotting time test in mice", "type": "in vivo", "procedure": "(§1) All in vivo experiments were conducted in accordance with the Mexican National Protection Laws on Animal Protection and the General Health Law Related to Health Research (NOM-062-Z00-1999). All procedures were approved by an ethics committee. Male adult CD1 mice weighing 25-35 g were used (obtained from the Animal Care Unit from Facultad de Medicina, UNAM).\nAnimals were distributed among groups according to a balanced design based on body weight (3 animals per group in each experiment). Room temperature was kept constant (21-24° C.), and with light-dark cycles of 12 h. Food and water were given ad libitum. Persenone-A was dissolved in DMSO (vehicle) and administered intraperitoneally (i.p.). Control animals only received the vehicle (1.66 mL kg−1).\nIn a blood clotting time test groups of animals received a single i.p. administration of Persenone A (1, 10 or 100 mg kg^−1 of body weight, respectively) or vehicle. Blood clotting time was measured 24 h after administration, as described in R. Jaimez, A. Cooney, K. Jackson, A. E. Lemus, C. […] Time was counted from the instant that blood first made contact with the glass capillary tube and until the blood ceased to flow. […]\nThe data shown in FIG. 4 is representative of at least three independent experiments. Results were expressed as means±SEM. […]"}, "[3]": {"test_system": "Male adult CD1 mice", "assay": "Experimental thrombosis model test (surgical stasis of femoral vasculature)", "type": "in vivo", "conditions": "25 mg kg−1 single i.p.; thrombosis induced after 24 h", "source_text": "Antithrombic activity may be assessed using one or more in vivo (e.g., experimental thrombosis model) assays. For example, after thrombus induction, femoral segments may be removed, fixed, and stained. These segments may be then scored by a pathologist in a double blind manner. Quantitative measurement may be obtained by computerized plannimetry, reaching a quantitative morphological description of structures at the two-dimensional level. Image analysis may be performed using ImageJ software. Minimal occlusion (0.2%) may be observed in controls arteries and test specimens may display thrombus occlusion 40% of the vascular light.\nas §1, with “UNAM). […]” for “UNAM).”\nAdditionally, an experimental thrombosis model test was performed by subjecting mice to an acute ischemic challenge. […] 4 μm thick sections were stained with Masson's trichrome and hematoxylin-eosin, and scored by a pathologist for the percentage of thrombus induction based on the occlusion of vascular light."}, "[4]": {"conditions": "Homo sapiens, Platelet, ADP 20 μM, read-out: Half-maximal inhibition concentration (IC50), ADP-induced platelet aggregation"}, "[5]": {"conditions": "Homo sapiens, Platelet, Arachidonic acid 500 μM, read-out: Half-maximal inhibition concentration (IC50), arachidonic acid-induced platelet aggregation"}, "[6]": {"conditions": "Homo sapiens, Platelet, Collagen 5 μg mL−1, read-out: Half-maximal inhibition concentration (IC50), collagen-induced platelet aggregation"}},
  "note": "Read-outs that look alike come from different tables or passages of the source.",
  "data": [
    {"compound": "CCCCC/C=C\\C/C=C\\CCCCCCCC(=O)CC(O)COC(C)=O", "note": "(stereo not shown) [Acetogenin 6, Persin]", "values": [
      {"measurement": "IC50", "setting": "[1]; [4]", "value": "> 15", "unit": "mM"},
      {"measurement": "IC50", "setting": "[1]; [5]", "value": "> 15", "unit": "mM"},
      {"measurement": "IC50", "setting": "[1]; [6]", "value": "> 15", "unit": "mM"},
      {"measurement": "inhibition of platelet aggregation (in words)", "setting": "[1]; any of the evaluated concentrations (0.15-15 mM)", "value": "did not inhibit platelet aggregation"}
    ]},
    {"compound": "CCCCC/C=C\\C/C=C\\CCCCC/C=C/C(=O)CC(O)COC(C)=O", "note": "(stereo not shown) [Acetogenin 4, Persenone-A]", "values": [
      {"measurement": "increase in blood clotting time", "setting": "[2]; 100 mg kg−1 single i.p., measured 24 h after administration, relative to vehicle", "value": 2, "unit": "fold"},
      {"measurement": "EC50 of blood clotting time", "setting": "[2]; single i.p., 24 h after administration", "value": "24.8±1.7 mg kg^−1 of body weight"},
      {"measurement": "decrease in luminal occlusion compared to the stasis group", "setting": "[3]", "value": 71, "unit": "%"},
      {"measurement": "IC50", "setting": "[1]; [4]", "value": "13.5 ± 1.41", "unit": "mM"},
      {"measurement": "IC50", "setting": "[1]; [5]", "value": "> 15", "unit": "mM"},
      {"measurement": "IC50", "setting": "[1]; [6]", "value": "8.73 ± 1.25", "unit": "mM"},
      {"measurement": "inhibition at 15000 µM", "setting": "[1]; Homo sapiens, Platelet, 15 mM, arachidonic acid, read-out: inhibition of arachidonic acid-induced platelet aggregation at the highest concentration", "value": "< 50", "unit": "%"}
    ]},
    {"compound": "CC(=O)Oc1ccccc1C(=O)O", "note": "[Aspirin, acetylysalicylic acid, reference compound]", "values": [
      {"measurement": "IC50", "setting": "[1]; [4]", "value": "3.65 ± 0.07", "unit": "mM"},
      {"measurement": "IC50", "setting": "[1]; [5]", "value": "0.07 ± 0.01", "unit": "mM"},
      {"measurement": "IC50", "setting": "[1]; [6]", "value": "0.38 ± 0.07", "unit": "mM"},
      {"measurement": "IC50", "setting": "[1]; Homo sapiens, Platelet, arachidonic acid-induced, read-out: IC50, arachidonic acid-induced platelet aggregation (as printed in text)", "value": "0.07 ± 0.01", "unit": "mM"},
      {"measurement": "IC50 for arachidonic acid-induced aggregation, fold lower than for ADP-induced aggregation", "setting": "[1]; arachidonic acid vs ADP", "value": 50, "unit": "fold"}
    ]},
    {"compound": "C=CCCCCCCCCCCC[C@H](O)C[C@H](O)COC(C)=O", "note": "[Acetogenin 1, (2S,4S)-1-acetoxy-2,4-dihydroxy-n-heptadeca-16-ene]", "values": [
      {"measurement": "IC50", "setting": "[1]; [4]", "value": "7.29 ± 1.21", "unit": "mM"},
      {"measurement": "IC50", "setting": "[1]; [5]", "value": "13.4 ± 1.26", "unit": "mM"},
      {"measurement": "IC50", "setting": "[1]; [6]", "value": 8.18, "unit": "mM"},
      {"measurement": "inhibitory concentration, fold higher than Persenone-C", "setting": "[1]; all three agonists (collagen, ADP, arachidonic acid)", "value": "> 1.5", "unit": "fold"}
    ]},
    {"compound": "CC/C=C/CCCCCCCCC/C=C/C(=O)CC(O)COC(C)=O", "note": "(stereo not shown) [Acetogenin 3, Persenone-C]", "values": [
      {"measurement": "IC50", "setting": "[1]; Collagen 5 μg mL−1, read-out: Half-maximal inhibition concentration (IC50), collagen-induced platelet aggregation", "value": "5.23 ± 1.19", "unit": "mM"},
      {"measurement": "IC50", "setting": "[1]; [4]", "value": "5.22 ± 1.19", "unit": "mM"},
      {"measurement": "IC50", "setting": "[1]; [5]", "value": "7.4 ± 1.2", "unit": "mM"},
      {"measurement": "IC50", "setting": "[1]; [6]", "value": "3.42 ± 1.56", "unit": "mM"}
    ]},
    {"compound": "C=C/C=C/CCCCCCCCCCCC(=O)CC(O)COC(C)=O", "note": "(stereo not shown) [Acetogenin 2, Persediene]", "values": [
      {"measurement": "IC50", "setting": "[1]; [4]", "value": "> 15", "unit": "mM"},
      {"measurement": "IC50", "setting": "[1]; [5]", "value": "> 15", "unit": "mM"},
      {"measurement": "IC50", "setting": "[1]; [6]", "value": "12 ± 1.24", "unit": "mM"},
      {"measurement": "inhibition of collagen-induced aggregation (in words)", "setting": "[1]; collagen-induced", "value": "inhibited collagen-induced aggregation"}
    ]}
  ]
}
